For assay [1], the system named is IL-6. In words: Human monocyte assay (LPS-induced): IL-6. The format is cell-based. Particulars: LPS stimulated human monocytes, 5 h. The source says: The assay was designed as in reference, Physiological Research, 52, 593-598, (2003), the disclosure of which is incorporated by reference for the teaching of the assay.
The objective of the assay is to determine whether compounds of the present invention—mediated inhibition of LPS-induced cytokines from monocytic THP-1 cell line translates to physiologically relevant human cells. Accordingly, the effect of compounds of the present invention on LPS—induced cytokine production from freshly isolated human monocytes was ascertained.
Peripheral blood was collected from healthy donors into potassium EDTA vacutainer tubes (BD Biosciences, USA). hPBMCs were isolated using density gradient separation (Histopaque-1077; Sigma, USA) and suspended in assay medium which is RPMI culture medium (Sigma, USA) containing 10% heat inactivated FBS (JRH Biosciences, Australia), 100 U/mL penicillin (Sigma, USA) and […] streptomycin (Sigma, USA). Monocytes in the hPBMCs were counted using a Coulter Counter following which the cells were resuspended at 2×10^5 monocytes/mL of assay medium. A cell suspension containing 2×10^4 monocytes was aliquoted per well of a 96-well plate (Nunc, USA). Subsequently, the hPBMCs were incubated for 4-5 h at 37° C., 5% CO2. During the incubation, the monocytes adhered to the bottom of 96-well plate. Following the incubation, the non-adherent lymphocytes were washed and assay medium was added to adherent monocytes. After 48 h of incubation at 37° C., 5% CO2, monocytes were pre-treated with various concentrations of test compound (prepared as 20 mM stock in DMSO; 1 μL of […] concentrated solution of test compound was dissolved in 200 μL cell suspension to achieve a final concentration of 0.03, 0.1, 0.3, 1, 3, 10, 30 and 100 μM) or vehicle (0.5% DMSO) or 10 μM dexamethasone (standard IL-6 and TNF-α inhibitor, Sigma, USA) for 30 min at 37° C., 5% CO2 and stimulated with 1 μg/mL LPS (Escherchia coli 0111:B4, Sigma, USA). The cells were then incubated for 5 h at 37° C., 5% CO2 following which supernatants were collected, stored at −70° C. and were assayed later for IL-6, and TNF-α by ELISA (OptiEIA ELISA sets, BD Biosciences, USA). The IC50 values were calculated by a nonlinear regression method using Graph Pad software (Prism 3.03).

The test system of assay [2] is IL-6. In words: hPBMC membrane-monocyte contact bioassay: IL-6. The assay is classed as cell-based. The conditions noted are these: Homo sapiens, monocytes, 24 h, read-out: inhibition of activated hPBMC mediated IL-6 production. The text has this:
The assay was designed as in reference, Immunology Letters, 117, 114-118, (2008), the disclosure of which is incorporated by reference for the teaching of the assay. Activated T cell contact-mediated monocyte activation, leading to the production of proinflammatory cytokines (e.g., TNF-α, IL-6), contributes to the pathogenesis of chronic inflammatory diseases including rheumatoid arthritis.
6-well plates (Nunc, USA) were coated with Goat anti-Mouse IgG, Fc (Chemicon, USA) at a concentration of 16.5 μL/mL in coating buffer ([…] NaHCO3, 3.56 g Na2CO3, pH 9.5).
The plates were incubated overnight at 4° C. under sterile conditions. […]
Following incubation, hPBMCs in separate wells of the 6-well plate were harvested, pooled together, and centrifuged. […] The pellet of hPBMC membranes was resuspended in lysis buffer (Sigma, USA) and the protein concentration was determined by the method of Bradford (Sigma, USA).
100 μL monocytes per well at 5×10^5 cells/mL were added to the 96-well plate (Nunc, USA) and cultured for 48 h at 37° C. […] Supernatants were collected after 24 h and TNF-α and IL-6 production was measured using OptiEIA ELISA sets, (BD BioSciences, USA). […]

In US20120225889A1, “USE OF MACROCYCLIC LACTONE DERIVATIVES FOR THE TREATMENT OF INFLAMMATORY DISORDERS” (PIRAMAL LIFE SCIENCES LIMITED, priority 2010, published 2012) one finds IC50 and inhibition data, which are given here for one molecule.

For the molecule `C/C=C/C(O)C(C)/C=C/C(=N\O)C(C)C(O)C(C)C1OC(=O)/C(OC)=C/C(C)=C/C(C)C(O)C(CC)C(O)C(C)C/C(C)=C/C=C/C1OC` (stereo not drawn) [Compound of example 7, (3Z,5E,13E,15E)-18-((5Z,6E,10E)-3,9-Dihydroxy-5-(hydroxymino)-4,8-dimethyldodeca-6,10-dien-2-yl)-9-ethyl-8,10-dihydroxy-3,17-dimethoxy-5,7,11,13-tetramethyl oxacyclooctadeca-3,5,13,15-tetraen-2-one], the midpoint of inhibition in the assay with IL-6 [1], the IC50, lay at 300 nM. In addition, the inhibition at 0.3 µM in the assay with IL-6 [2] (at 0.3 μM) was 66%. Also, the inhibition at 0.5 µM in the assay with IL-6 [2] (at 0.5 μM) was 100%.
